Test system: HUVECs
Assay: 2D angiogenesis assay, HUVECs on the hydrogel surface
Assay type: cell-based, human
Protocol: Angiogenesis and vascularization assays were adopted to optimize hydrogels with RGD. For the two-dimensional (2D) culture of HUVECs, cells (4×10^4/well in a 96-well plate) were plated on the surface of HA hydrogels (40 μL; HA-SH: 4 mg/mL and PEGDA: 5 mg/mL) with various concentrations of RGD (0, 0.01, 0.1, and 1 mM). Matrigel was used as a positive control. After 24 h, HUVECs were imaged after LIVE/DEAD staining. As for the 3D cell culture, to avoid cell precipitation onto the surface of the plate, the plate was first coated with the hydrogels (40 μL hydrogel; HA-SH: 4 mg/mL, PEGDA: 2 mg/mL, F127-SS-DA: 4 mg/mL; RGD: 0, 0.10, 0.25, and 0.50 mM). Then, HUVECs and hASCs mixed with hydrogel precursor solutions (0.75×10^6/mL hydrogel; 40 μL hydrogel) were plated on top of hydrogels. In addition, both cells were cultured inside hydrogels with F127-SS-DA or F127-DA (40 μL; HA-SH: 4 mg/mL, PEGDA: 2 mg/mL, RGD: 0.1 mM; F127-DA or F127-SS-DA: 2, 4, 8, 10, 20, and 50 mg/mL). The cells were imaged after immunostaining for F-actin. […]
Cell viability was examined with a LIVE/DEAD staining kit and then the images were captured by a Zeiss LSM 880 laser scanning confocal microscope. The cell morphology was also evaluated by immunostaining with Alexa Fluor Phalloidin 568 or 488 for F-actin and 4′,6-diamidino-2-phenylindole dihydrochloride (DAPI, Molecular Probes) for cell nuclei.

RGD
endothelial cell layer on the hydrogel surface (RGD at 1 mM): supported the formation of a full layer of endothelial cells
endothelial cell adhesion (RGD conjugated to a hyaluronic acid-based hydrogel, FIG. 18): improved endothelial cell adhesion in a dose-dependent manner

From patent US20240138838A1, “SURFACE-MODIFIED ANASTOMOSIS DEVICE” (Washington University, priority 2022, published 2024)
